Assay results from patent US8906904B2, “Alkoxy pyrazoles as soluble guanylate cyclase activators” (Boehringer Ingelheim International GmbH, priority 2012, dated 2014).
Values after ≈ are worked out from the molar mass of the structure shown.

Assay: Assessment of solubility (McIlvaine buffers, 24 h shake, UPLC-UV)
Type: physicochemical
Conditions: kinetic from dmso stock
In short: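 Compounds from 10 mM DMSO stocks were shaken for 24 h at room temperature in McIlvaine buffers at pH 2.2, 4.5 and 6.8 (2.5% v/v DMSO final), then filtered. Filtrates were quantified by UPLC-UV at 254 nm against a 50:50 acetonitrile/water reference assumed fully dissolved, as a single determination.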

| SMILES | solubility at 24 h (pH 2.2, aqueous buffer) [µg/mL] | solubility at 24 h (pH 4.5, aqueous buffer) [µg/mL] | solubility at 24 h (pH 6.8, aqueous buffer) [µg/mL] |
| --- | --- | --- | --- |
| CCOc1c(C(=O)O)cnn1-c1cccc(-c2cccc(Cl)c2OCc2ccc3c(c2)CCN(C2CCOC2)C3)n1 (stereo not drawn) [Compound 55] | 98 (≈ 170 µM) | 48 (≈ 83.5 µM) | 49 (≈ 85.2 µM) |
| CCOc1c(C(=O)O)cnn1-c1cccc(-c2cccc(Cl)c2OCc2ccc3c(c2)CCN(C(C)CO)C3)n1 (stereo not drawn) [Compound 56] | 87 (≈ 155 µM) | 66 (≈ 117 µM) | 77 (≈ 137 µM) |
| CCOc1c(C(=O)O)cnn1-c1cccc(-c2cccc(Cl)c2OCc2ccc3c(c2)CCN(C2CCC(F)(F)CC2)C3)n1 [Compound 57] | 95 (≈ 152 µM) | 47 (≈ 75.4 µM) | 51 (≈ 81.8 µM) |
| CCOc1c(C(=O)O)cnn1-c1cccc(-c2cccc(Cl)c2OCc2ccc3c(c2)CCN(CCOC)C3)n1 [Compound 58] | 111 (≈ 197 µM) | 85 (≈ 151 µM) | 89 (≈ 158 µM) |
| COc1c(C(=O)O)cnn1-c1cccc(-c2cccc(C)c2OCc2ccc3c(c2)CCN(C2CCOC(C)(C)C2)C3)n1 (stereo not drawn) [Compound 61] | 130 (≈ 223 µM) | 110 (≈ 189 µM) | 99 (≈ 170 µM) |
| COc1c(C(=O)O)cnn1-c1cccc(-c2cccc(C)c2OCc2ccc3c(c2)CCN(C2CC(C)OC(C)C2)C3)n1 (stereo not drawn) [Compound 62] | 110 (≈ 189 µM) | 88 (≈ 151 µM) | 91 (≈ 156 µM) |
| COc1c(C(=O)O)cnn1-c1cccc(-c2cccc(F)c2OCc2ccc3c(c2)CCN(C2CCOCC2)C3)n1 [Compound 63] | 110 (≈ 197 µM) | 90 (≈ 161 µM) | 92 (≈ 165 µM) |
| CCOc1c(C(=O)O)cnn1-c1cccc(-c2cccc(C)c2OCc2ccc3c(c2)CCN(C2CCOCC2C)C3)n1 (stereo not drawn) [Compound 64] | 100 (≈ 172 µM) | 66 (≈ 113 µM) | 66 (≈ 113 µM) |
| CCOc1c(C(=O)O)cnn1-c1cccc(-c2cccc(C)c2OCc2ccc3c(c2)CCN(C2CC(C)OC(C)C2)C3)n1 (stereo not drawn) [Compound 65] | 110 (≈ 184 µM) | 84 (≈ 141 µM) | 74 (≈ 124 µM) |
| CCOc1c(C(=O)O)cnn1-c1cccc(-c2cccc(C)c2OCc2ccc3c(c2)CCN(C2CCOC(C)(C)C2)C3)n1 (stereo not drawn) [Compound 66] | 63 (≈ 106 µM) | 54 (≈ 90.5 µM) | 55 (≈ 92.2 µM) |
| CCOc1c(C(=O)O)cnn1-c1cccc(-c2cccc(C)c2OCc2ccc3c(c2)CCN(C2CC(C)(C)OC(C)(C)C2)C3)n1 [Compound 67] | 90 (≈ 144 µM) | 76 (≈ 122 µM) | 78 (≈ 125 µM) |
| CCOc1c(C(=O)O)cnn1-c1cccc(-c2cccc(C)c2OCc2ccc3c(c2)CCN(CC2CCOC2)C3)n1 (stereo not drawn) [Compound 68] | 85 (≈ 149 µM) | 71 (≈ 125 µM) | 74 (≈ 130 µM) |
| CCOc1c(C(=O)O)cnn1-c1cccc(-c2cccc(C)c2OCc2ccc3c(c2)CCN(CC2CCOCC2)C3)n1 [Compound 69] | 91 (≈ 156 µM) | 77 (≈ 132 µM) | 80 (≈ 137 µM) |
| CCOc1c(C(=O)O)cnn1-c1cccc(-c2cccc(C)c2OCc2ccc3c(c2)CCN(C(C)CS(C)(=O)=O)C3)n1 (stereo not drawn) [Compound 70] | 86 (≈ 142 µM) | 57 (≈ 94.3 µM) | 64 (≈ 106 µM) |
| CCOc1c(C(=O)O)cnn1-c1cccc(-c2cccc(C)c2OCc2ccc3c(c2)CCN(C2CCOC2C)C3)n1 (stereo not drawn) [Compound 71] | 94 (≈ 165 µM) | 75 (≈ 132 µM) | 78 (≈ 137 µM) |
| COc1c(C(=O)O)cnn1-c1cccc(-c2cccc(C)c2OCc2ccc3c(c2)CCN(CC2CC2(F)F)C3)n1 (stereo not drawn) [Compound 72, 1-(6-{2-[2-(2,2-difluoro-cyclopropylmethyl)-1,2,3,4-tetrahydro-isoquinolin-6-ylmethoxy]-3-methyl-phenyl}-pyridin-2-yl)-5-methoxy-1H-pyrazole-4-carboxylic acid] | 44 (≈ 78.5 µM) | 46 (≈ 82.1 µM) | 67 (≈ 120 µM) |
| COc1c(C(=O)O)cnn1-c1cccc(-c2cccc(C)c2OCc2ccc3c(c2)CCN(C2CC(C)(C)OC(C)(C)C2)C3)n1 [Compound 73] | 86 (≈ 141 µM) | 67 (≈ 110 µM) | 71 (≈ 116 µM) |
| COc1c(C(=O)O)cnn1-c1cccc(-c2cccc(C)c2OCc2ccc3c(c2)CCN(CCS(C)(=O)=O)C3)n1 [Compound 74] | 110 (≈ 191 µM) | 83 (≈ 144 µM) | 95 (≈ 165 µM) |

The next lines start with the values.

| solubility at 24 h (pH 2.2, aqueous buffer) [µg/mL] | solubility at 24 h (pH 4.5, aqueous buffer) [µg/mL] | solubility at 24 h (pH 6.8, aqueous buffer) [µg/mL] | SMILES |
| --- | --- | --- | --- |
| 120 (≈ 202 µM) | 93 (≈ 156 µM) | 90 (≈ 151 µM) | COc1c(C(=O)O)cnn1-c1cccc(-c2cccc(C)c2OCc2ccc3c(c2)CCN(C2C4CCOC4C2(C)C)C3)n1 (stereo not drawn) [Compound 75] |
| 96 (≈ 169 µM) | 83 (≈ 146 µM) | 87 (≈ 153 µM) | CCOc1c(C(=O)O)cnn1-c1cccc(-c2cccc(C)c2OCc2ccc3c(c2)CCN(C2CCOCC2)C3)n1 [Compound 77] |
| 100 (≈ 172 µM) | 86 (≈ 148 µM) | 89 (≈ 153 µM) | CCOc1c(C(=O)O)cnn1-c1cccc(-c2cccc(C)c2OCc2ccc3c(c2)CCN(C2CCOC(C)C2)C3)n1 (stereo not drawn) [Compound 78] |
| 100 (≈ 168 µM) | 87 (≈ 146 µM) | 89 (≈ 149 µM) | CCOc1c(C(=O)O)cnn1-c1cccc(-c2cccc(C)c2OCc2ccc3c(c2)CCN(C2CCOC(CC)C2)C3)n1 (stereo not drawn) [Compound 79] |
| 110 (≈ 180 µM) | 94 (≈ 154 µM) | 95 (≈ 156 µM) | CCOc1c(C(=O)O)cnn1-c1cccc(-c2cccc(C)c2OCc2ccc3c(c2)CCN(CC2CCOC(C)(C)C2)C3)n1 (stereo not drawn) [Compound 80] |
| 100 (≈ 171 µM) | 84 (≈ 144 µM) | 79 (≈ 135 µM) | COc1c(C(=O)O)cnn1-c1cccc(-c2cccc(C)c2OCc2ccc3c(c2)CCN(C2CCOCC2OC)C3)n1 (stereo not drawn) [Compound 81] |
| 120 (≈ 214 µM) | 100 (≈ 178 µM) | 97 (≈ 173 µM) | COc1c(C(=O)O)cnn1-c1cccc(-c2cccc(C)c2OCc2ccc3c(c2)CN(CC2CC(F)(F)C2)C3)n1 [Compound 82] |
| 110 (≈ 181 µM) | 88 (≈ 145 µM) | 95 (≈ 156 µM) | COc1c(C(=O)O)cnn1-c1cccc(-c2cccc(C(F)(F)F)c2OCc2ccc3c(c2)CCN(C2CCOCC2)C3)n1 [Compound 83] |
| 110 (≈ 177 µM) | 86 (≈ 138 µM) | 89 (≈ 143 µM) | COc1c(C(=O)O)cnn1-c1cccc(-c2cccc(C(F)(F)F)c2OCc2ccc3c(c2C)CCN(C2CCOCC2)C3)n1 [Compound 84] |
| 120 (≈ 234 µM) | 96 (≈ 187 µM) | 110 (≈ 215 µM) | COc1c(C(=O)O)cnn1-c1cccc(-c2cccc(C)c2OCc2ccc3c(c2)CN(C2COC2)C3)n1 [Compound 85] |
| 110 (≈ 193 µM) | 90 (≈ 158 µM) | 91 (≈ 160 µM) | COc1c(C(=O)O)cnn1-c1cccc(-c2cccc(C)c2OCc2ccc3c(c2)CCN(C2CCOCC2C)C3)n1 (stereo not drawn) [Compound 86] |
| 110 (≈ 189 µM) | 87 (≈ 150 µM) | 90 (≈ 155 µM) | COc1c(C(=O)O)cnn1-c1cccc(-c2cccc(C)c2OCc2ccc3c(c2)CCN(C2CC4CCC(C2)O4)C3)n1 (stereo not drawn) [Compound 87] |
| 90 (≈ 151 µM) | 63 (≈ 106 µM) | 75 (≈ 126 µM) | COc1c(C(=O)O)cnn1-c1cccc(-c2cccc(C(F)(F)F)c2OCc2ccc3c(c2C)CCN(C2COC2)C3)n1 [Compound 88] |
| 130 (≈ 223 µM) | 92 (≈ 158 µM) | 81 (≈ 139 µM) | COc1c(C(=O)O)cnn1-c1cccc(-c2cccc(C)c2OCc2ccc3c(c2)C(C)(C)CN(C2CCOCC2)C3)n1 [Compound 89] |
| 100 (≈ 172 µM) | 81 (≈ 139 µM) | 81 (≈ 139 µM) | COc1c(C(=O)O)cnn1-c1cccc(-c2cccc(C)c2OCc2ccc3c(c2)CCN([C@H]2CC[C@H](OC)CC2)C3)n1 [Compound 90] |
| 100 (≈ 172 µM) | 81 (≈ 139 µM) | 81 (≈ 139 µM) | COc1c(C(=O)O)cnn1-c1cccc(-c2cccc(C)c2OCc2ccc3c(c2)CCN([C@H]2CC[C@@H](OC)CC2)C3)n1 [Compound 91] |
| 110 (≈ 193 µM) | 93 (≈ 163 µM) | 96 (≈ 168 µM) | COc1c(C(=O)O)cnn1-c1cccc(-c2cccc(C)c2OCc2ccc3c(c2)CCN(CC2COCCO2)C3)n1 (stereo not drawn) [Compound 92] |
| 98 (≈ 165 µM) | 77 (≈ 130 µM) | 81 (≈ 136 µM) | COc1c(C(=O)O)cnn1-c1cccc(-c2cccc(C(F)(F)F)c2OCc2ccc3c(c2)CN(C2CCOCC2)C3)n1 [Compound 93] |
| 91 (≈ 155 µM) | 68 (≈ 116 µM) | 73 (≈ 124 µM) | CCOc1c(C(=O)O)cnn1-c1cccc(-c2cccc(C)c2OCc2ccc3c(c2)CCN(C2CCOCC2F)C3)n1 (stereo not drawn) [Compound 94] |
| 93 (≈ 158 µM) | 67 (≈ 114 µM) | 75 (≈ 127 µM) | CCOc1c(C(=O)O)cnn1-c1cccc(-c2cccc(C)c2OCc2ccc3c(c2)CCN(CC2CC(F)(F)C2)C3)n1 [Compound 96] |
